Reference: patent US11464802B2, “3-substituted piperidine compounds for Cbl-b inhibition, and use thereof” (Nurix Therapeutics, Inc., priority 2019, dated 2022)

Molecular target: Cbl-b (Homo sapiens (Human), UniProt Q13191)
Assay: Cbl-b displacement assay (Cbl-b inhibition assay), TR-FRET probe displacement, Biological Example 1
Assay type: binding
Conditions: 0.5 nM Cbl-b final concentration (High); read-out: Cbl-b activity IC50 (High)
In short: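 TR-FRET displacement of a BODIPY FL-labelled inhibitor probe (150 nM, ~EC40) from biotin-Avitag truncated Cbl-b, detected via 2 nM streptavidin-Tb, 1 h, room temperature. Compound in 1% DMSO pre-incubated 1 h with Cbl-b at 0.5 nM (High) or 0.125 nM (Low) in 20 mM HEPES pH 7.5, 150 mM NaCl, 0.5 mM TCEP.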

Chain of Cbl-b (Q13191 36-427): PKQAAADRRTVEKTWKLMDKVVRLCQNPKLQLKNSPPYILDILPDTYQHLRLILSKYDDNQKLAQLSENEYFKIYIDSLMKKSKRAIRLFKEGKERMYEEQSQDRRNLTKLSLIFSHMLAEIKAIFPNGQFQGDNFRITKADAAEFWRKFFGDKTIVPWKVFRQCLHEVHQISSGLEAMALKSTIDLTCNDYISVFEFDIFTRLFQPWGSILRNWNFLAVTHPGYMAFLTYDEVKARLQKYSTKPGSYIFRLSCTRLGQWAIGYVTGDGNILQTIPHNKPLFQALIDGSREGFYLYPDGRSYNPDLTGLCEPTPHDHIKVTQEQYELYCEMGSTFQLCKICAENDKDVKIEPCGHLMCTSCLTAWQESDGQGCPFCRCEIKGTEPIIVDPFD

SMILES: C[C@@H]1CN(Cc2cc3c(c(C(F)(F)F)c2)CN(c2cccc(C4(Cc5nncn5C)COC4)c2)C3=O)CCC1(F)F [Compound 8, (R)-6-((4,4-difluoro-3-methylpiperidin-1-yl)methyl)-2-(3-(3-((4-methyl-4H-1,2,4-triazol-3-yl)methyl)oxetan-3-yl)phenyl)-4-(trifluoromethyl)isoindolin-1-one]
- IC50: 5.1 to 100 nM
